How the values were obtained:
[1] = tested on: Fmr1 knockout (KO) or Wild Type (WT) mice; experiment: Successive alleys (anxiety and hyperactivity); format: in vivo, mouse; conditions: 2 months old, 150 mg/kg once daily 7 days, Study 1
Method: Fmr1 knockout mice (KO2) mice (The Dutch-Belgium Fragile X Consortium, 1994), initially obtained from the Jackson Laboratory, and wild type (WT) littermates were generated on a C57BL/6J background and repeatedly backcrossed onto a C57BL/6J background for more than eight generations. The Fmr1 knockout mice were housed in groups of the same genotype in a temperature and humidity controlled room with a 12-h light-dark cycle (lights on from 7 am to 7 pm; testing was conducted during light phase). Room temperature and humidity were recorded continuously in the holding room while food and water were available ad libitum. Testing was conducted on healthy Fmr1 knockout mice and their wild type littermates (N=10 mice per treatment group) at 2 or 6 months of age during the behavioral experiments. Mice were housed in commercial plastic cages and experiments were conducted in line with the requirements of the UK Animals (Scientific Procedures) Act, 1986. All experiments were conducted with experimenters blind to genotype and drug treatment. Animals were allowed a minimum acclimatization period of one week prior to performing any experiment. No prophylactic or therapeutic treatment was administered during the acclimatization period.
(§1) In all cases, saline was used as a vehicle (control).
The apparatus consisted of four successive, linearly arranged, increasingly anxiogenic alleys (each succeeding alley was painted a lighter color, had lower walls and/or was narrower than the previous alley) made of painted wood. Each section or alley was 25 cm long. Alley 1 had 25 cm high walls, was 8.5 cm wide, and was painted black. A 0.5 cm step down led to alley 2, which was again 8.5 cm wide, but had 1.3 cm high walls and was grey. A 1.0 cm step down led to alley 3, which was 3.5 cm wide, had 0.8 cm high walls, and was white. A 0.4 cm step led down to alley 4, which was also white, but had 1.2 cm wide and 0.2 cm high walls. The apparatus was elevated by anchoring the back of alley 1 to a stand, 50 cm high. Padding was provided under arms 3 and 4 in case a mouse fell off. Each mouse was placed at the closed end of alley 1 facing the wall. Timers were started 1) for the overall length of the test (5 min)+the latency to enter each arm, and 2) for the time spent in alley 1. When the mouse placed all 4 feet on to the next alley, it was considered to have entered the alley. Total time spent in each alley (all four feet) was recorded.
Multivariate analysis of variance was employed to assess group differences across data. Repeated measures ANOVA were performed for behavioral data. Statistically significant effects in each ANOVA were followed with post hoc comparisons, using the Newman-Keuls test (Study 1) or the Tukey test (Study 2). A p value of less than 0.05 was considered significant.
The successive alleys test effectively measured anxiety (latency to enter the Alley 1) and hyperactivity (Alleys 2 to 4). Progression from Alley 1 through the successive Alleys 2, 3, and 4 was associated with exposure to an increasingly brightly colored environment with increasingly lower walls and narrower, more exposed open arms. Time spent on, and entries into, the open arms indicated anxiety; conversely, increasing time spent in more open arms reflected hyperactivity. These factors allowed for a sensitive test bracketing a range of anxiety-like behaviors together with hyperactivity.

[2] = tested on: primary hippocampal neurons from Fmr1 knockout mice; experiment: Dendritic filopodia density and maturation in vitro; format: cell-based, mouse; conditions: neurons from Fmr1 KO mice, 300 μM, five hours
Method: as §1
Hippocampal cell cultures were prepared from wild type and Fmr1 KO fetal mice at embryonic day of gestation 17.5 (E17.5). Mice were killed by cervical dislocation and dissociated hippocampal cells were plated in 15 mm multi well vessels (Falcon Primaria). After 5 d in vitro, green fluorescent protein (GFP) was transfected to facilitate monitoring dendritic spine morphogenesis after drug treatment (Ethell and Yamaguchi, 1999; Ethell et al., 2001, Henkemeyer et al., 2003). Dendritic spines were formed at around 16 days in vitro (DIV).
Filopodia density of GFP transfected neurons was quantified by performing Sholl analyses of stacked Zeiss confocal generated images (40× objective, stack of 20×0.2 μm). With Metamorph software, concentric equally spaced circles (every 20 μm) were drawn around the cell soma of each neuron and subsequently, the amount of filopodia was counted per circle. Averages of counts were compared with unpaired two-tailed Student's T-tests.
Spine maturity of GFP transfected neurons was analyzed with Metamorph software (Molecular Devices, Sunnyvale, Calif.). Two distal dendritic segments of 70 100 μm were chosen per neuron for spine morphometric analysis. For each spine, the length and the width were measured. The length was defined as the distance from the base to the tip of the protrusion; whereas width was defined as the maximum distance perpendicular to the long axis of the spine. Measurements were compared with unpaired two tailed Student's T-tests and ANOVA corrected for multiple comparisons.

[3] = tested on: Akt; experiment: Lymphocyte pAkt (flow cytometry); format: in vivo, mouse; conditions: Fmr1 KO mice, 2 months old
Method: as §1
The Ras-Mek-ERK and PI3K-Akt-mToR signaling pathways are involved in mediating activity dependent alterations in gene transcription underlying changes in synaptic plasticity (Klann and Dever, 2004). Phosphorylated ERK and Akt protein expression was measured by western blot analysis as previously described by Lopez Verrilli (Lopez Verrilli et al., 2009). The antibodies employed were anti-phosphospecific antibodies against Akt (1/1000) and kinase (ERK) 1/2 (1/2000) (Cell Signaling Technology, Danvers, Mass., USA). The antibody against phospho-ERK detects phosphorylation at phospho-ERK 1/2 (Thr202/Tyr204) whereas the antibody against phospho-Akt detects phosphorylation at phospho-Akt (Thr308). Total Akt and ERK 1/2 protein content and phosphorylated ERK and Akt were evaluated by blotting membranes with antiphospho-Akt (1/1000) and antiphospho-ERK antibodies (1/2000) (Cell Signaling Technology, Danvers, Mass., USA). Akt or ERK phosphorylation was normalized to protein content in the same sample and expressed as % of change with respect to basal conditions, considering basal levels as 100%. Protein loading was evaluated by stripping and re-blotting membranes with j-actin antibody (1/1000) (Sigma-Aldrich, St. Louis, Mo., USA). Phosphorylated ERK and Akt protein expression in blood lymphocytes was measured by flow cytometry. For lymphocyte biomarker determinations, a FACStar plus (Becton Dickinson) was used with the excitation laser tuned at 488 nm and green fluorescence from FITC (GST) was collected through a 515-545 nm bandpass filter. The mean FITC fluorescence Intensity was calculated in relation to the fluorescence of reference cells. The mean cellular fluorescence intensity (MFI) is directly proportional to the mean number of Ab molecules bound per cell.

Cc1ncc(CO)c(CO)c1O.O=C1CC[C@@H](C(=O)O)N1 [metadoxine, pyridoxol L,2-pyrrolidon-5 carboxylate]
successive alleys, Alley 1 (anxiety) ([1]; Fmr1 KO mice): complete normalization occurred | successive alleys, Alley 2 (hyperactivity) ([1]; Fmr1 KO mice): reversal of hyperactivity was partial | successive alleys, Alley 3 (hyperactivity) ([1]; Fmr1 KO mice): hyperactivity was not reversed | successive alleys, Alley 4 (hyperactivity) ([1]; Fmr1 KO mice): reversed this hyperactivity | successive alleys, Alley 1 (anxiety) ([1]; WT mice): no effect on WT mice | successive alleys, Alley 2 (activity) ([1]; WT mice): no effect on WT mice | successive alleys, Alley 3 (activity) ([1]; WT mice): no effect on WT mice | successive alleys, Alley 4 (activity) ([1]; WT mice): no effect on WT mice | density of neuronal filopodia [2]: reduced the aberrant increase in density of neuronal filopodia | filopodia length [2]: reversed this increase in filopodia length | filopodia width [2]: reversed the decrease in width | lymphocyte pAkt ([3]; 150 mg/kg ip once daily 7 days): normalized overactivated Akt | lymphocyte pAkt ([3]; 150 mg/kg oral once daily 7 days): normalized overactivated Akt | lymphocyte pAkt ([3]; 300 mg/kg oral once daily 7 days): normalized overactivated Akt
